Literature values, collected in patent publication US20100012894A1, “Tooth Whitening Compositions and Methods” (priority 2008, published 2010).

Details: at six months; concentrations 16%-18% carbamide peroxide (Brunton et al., 2004)

In the case of `NC(N)=O.OO` [carbamide peroxide], the rebound is listed as 40 % of patients.
